Reference: patent publication US20120211373A1, “MICROFLUIDIC SYSTEM FOR MEASURING CELL BARRIER FUNCTION” (THE REGENTS OF THE UNIVERSITY OF MICHIGAN, priority 2011, published 2012)

Assays:
[1] = tested on: b.End3 monolayers; test: Paracellular permeability across b.End3 monolayers in transwells and layered microfluidic devices
Protocol: The permeability of [^14C]-mannitol as a function of days across b.End3 cells cultured in transwells and layered microfluidic channels was measured. […] Consequently, mannitol has been routinely used to assess the paracellular permeability of epithelial and endothelial monolayers.
Permeability experiments were performed at 3, 6, 9, 12, 15, 18, and 21 days in culture for all three marker molecules with five replicates for both the transwells and the layered microfluidic devices. Briefly, cells grown in both the transwells and the layered microfluidic devices under static condition were removed from the incubator and washed twice by replacing culture medium with PBS solution. PBS solutions were then aspirated and replaced by the designated solution with radioactively labeled marker molecules at the apical (top) compartment. All transwells and layered microfluidic devices were then placed onto the shaker at 100 rpm inside the incubator at 37° C., 95% air, and 5% CO2 for a total of 60 minutes. At every 10 minute interval, the transwells and the layered microfluidic devices were taken out of the incubator; the PBS solutions from the basolateral compartments were collected and replaced by fresh PBS solutions. At the end of the 1 hour incubation time, the solutions in both the apical and basolateral compartments were collected. All the samples collected during the experiments were measured using liquid scintillation counter which evaluates the radioactivity of each sample in the unit of count per minute (CPM). CPMs from all samples are then converted into concentration using the standard dilution scheme.
The permeability of a given molecule across the monolayer was calculated by suing a derived form of a differential equation based on Fick's Law: […]
The unit of measurement cm/s for permeability coefficient is commonly used.

[2] = tested on: b.END.3 cell monolayer; test: TEER / impedance of b.END.3 cell monolayer after chemical treatment in microfluidic chip; assay type: cell-based, mouse
Protocol: Cell Seeding and Culture. Epithelial (MDCK-2) and endothelial (b.END.3) cell lines were selected because they offered well characterized and accepted TEER values to compare with the experimental results. […] All cell lines were cultured in endothelial growth media (DMEM with 10% fetal bovine serum and 1% penicillin/streptomycin) prior to seeding in the microfluidic chip. The microfluidic chip was exposed to plasma oxygen for 5 min to make hydrophilic. Prior to cell seeding, fibronectin solution (Invitrogen) at a concentration of 100 μg/mL in phosphate buffered saline (PBS) was injected into the upper (endothelial) channel to promote cell adhesion. The lower channel was preloaded with growth media. […]
Resolving TEER from Circuit Model. In order to resolve the TEER value from the experimental impedance spectra, the control impedance spectra (taken from the same chip just before cell seeding) was subtracted from the measured impedance spectra (with cells) to eliminate the effect from electrolyte, membrane, and electrode-electrolyte interfaces and simplify the analysis. […]

Row | lower permeability in layered microfluidic channels compared to transwells ([1]; Example 2, b.End3, as a function of days in culture (FIG. 11)) | lower permeability across b.End3 monolayers in layered microfluidic devices compared to transwells ([1]; Example 5, after 9 days in culture (FIG. 11A)) | permeability relative to the large markers in layered microfluidic devices (size selectivity) ([1]; day 3 and day 6 in culture (FIG. 11E)) | Compound | impedance of the entire system following treatment ([2]; all frequency points, 30 min, 0.1% in DMEM) | TEER (paracellular resistance) after treatment ([2]; b.END.3 monolayer treated 30 min with 0.1% in DMEM, before treatment 161.51±0.755 Ωcm^2)
1 | 15 fold | 10 fold | higher permeability | OC[C@@H](O)[C@@H](O)[C@H](O)[C@H](O)CO [[^14C]-mannitol, [^14C]-D-Mannitol] |  | 
2 |  |  |  | TritonX-100 | decreased significantly | 39.73±1.925 Ωcm^2
